The record followed here is patent US20230272029A1, “CO-AGONISTS AT GLP-1 AND GIP RECEPTORS SUITABLE FOR ORAL DELIVERY” (Novo Nordisk A/S, priority 2020, published 2023).

Starred links: 1 amine or outer side, 2 acyl side, 3 side chain; linkers in the order of their positions; H or OH if unused. Non-standard residues stand in square brackets, D forms with d. Residues, ends and D or L forms follow the SMILES beside them. Groups on a side chain read outwards from the residue. *: point of attachment. C18 diacid = O=C(O)CCCCCCCCCCCCCCCCC(=O)*; γGlu = O=C(O)[C@H](CCC(=O)[*:2])N[*:1]; εLys = N[C@@H](CCCCN[*:1])C(=O)[*:2]; AEEA = NCCOCCOCC(=O)O; Aib = CC(C)(N)C(=O)O

The nature of this series: Pharmacokinetic study in dogs after oral dosing of tablets with SNAC. The format is in vivo, Beagle dogs. A digest of the protocol:
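Male beagle dogs were fasted and given a single oral tablet containing 3-4 mg test substance with 100-300 mg SNAC, in groups of 6-8. Plasma from serial EDTA blood samples was analysed by LC-MS, and t1/2, Cmax/D, tmax and AUC/D were obtained by non-compartmental analysis.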

Take `CC[C@H](C)[C@H](NC(=O)[C@H](Cc1ccccc1)NC(=O)[C@H](CCC(=O)O)NC(=O)[C@H](CCCNC(=N)N)NC(=O)[C@H](C)NC(=O)[C@H](C)NC(=O)[C@H](CCC(N)=O)NC(=O)[C@H](CCC(=O)O)NC(=O)[C@H](CCC(=O)O)NC(=O)[C@H](CC(C)C)NC(=O)[C@H](CC(C)C)NC(=O)[C@H](CCCCNC(=O)[C@@H](N)CCCCNC(=O)[C@@H](N)CCCCNC(=O)CC[C@H](NC(=O)CCCCCCCCCCCCCCCCC(=O)O)C(=O)O)NC(=O)[C@H](CO)NC(=O)[C@H](Cc1ccc(O)cc1)NC(=O)[C@H](CC(=O)O)NC(=O)[C@H](CO)NC(=O)[C@@H](NC(=O)[C@H](Cc1ccccc1)NC(=O)[C@@H](NC(=O)CNC(=O)[C@H](CCC(=O)O)NC(=O)C(C)(C)NC(=O)[C@@H](N)Cc1ccc(O)cc1)[C@@H](C)O)[C@@H](C)O)C(=O)N[C@@H](CCC(=O)O)C(=O)N[C@@H](Cc1c[nH]c2ccccc12)C(=O)N[C@@H](CC(C)C)C(=O)N[C@@H](CC(C)C)C(=O)N[C@@H](C)C(=O)NCC(=O)NCC(=O)N1CCC[C@H]1C(=O)N[C@@H](CO)C(=O)N[C@@H](CO)C(=O)NCC(=O)N[C@@H](C)C(=O)N1CCC[C@H]1C(=O)N1CCC[C@H]1C(=O)N1CCC[C@H]1C(=O)N[C@@H](CO)C(=O)O` [Compound No. 40]: where the note is “dog, in vivo, po”, the AUC/Dose was determined as 27.0 kg·h/L and the Cmax/Dose came to 0.48 kg/L.

For the setting “dog, in vivo, po”, `CC[C@H](C)[C@H](NC(=O)[C@H](Cc1ccccc1)NC(=O)[C@H](CCC(=O)O)NC(=O)[C@H](CCCNC(=N)N)NC(=O)[C@H](C)NC(=O)[C@H](C)NC(=O)[C@H](CCC(N)=O)NC(=O)[C@H](CCCCNC(=O)COCCOCCNC(=O)COCCOCCNC(=O)CC[C@H](NC(=O)CCCCCCCCCCCCCCCCC(=O)O)C(=O)O)NC(=O)[C@H](CCC(=O)O)NC(=O)[C@H](CC(C)C)NC(=O)[C@H](Cc1ccc(O)cc1)NC(=O)[C@@H](NC(=O)[C@H](CO)NC(=O)[C@H](Cc1ccc(O)cc1)NC(=O)[C@H](CC(=O)O)NC(=O)[C@H](CO)NC(=O)[C@@H](NC(=O)[C@H](Cc1ccccc1)NC(=O)[C@@H](NC(=O)CNC(=O)[C@H](CCC(=O)O)NC(=O)C(C)(C)NC(=O)[C@@H](N)Cc1ccc(O)cc1)[C@@H](C)O)[C@@H](C)O)[C@@H](C)CC)C(=O)N[C@@H](CCC(=O)O)C(=O)N[C@@H](Cc1c[nH]c2ccccc12)C(=O)N[C@@H](CC(C)C)C(=O)N[C@@H](CC(C)C)C(=O)N[C@@H](C)C(=O)NCC(=O)NCC(=O)N1CCC[C@H]1C(=O)N[C@@H](CO)C(=O)N[C@@H](CO)C(=O)NCC(=O)N[C@@H](C)C(=O)N1CCC[C@H]1C(=O)N1CCC[C@H]1C(=O)N1CCC[C@H]1C(=O)N[C@@H](CO)C(=O)O` [Compound No. 10] (H-Y[Aib]EGTFTSDYSIYLEK([AEEA-AEEA-γGlu-C18 diacid])QAAREFIEWLLAGGPSSGAPPPS-OH) returned an AUC/Dose of 8.4 kg·h/L and a Cmax/Dose of 0.20 kg/L.

`CC[C@H](C)[C@H](NC(=O)[C@H](Cc1ccccc1)NC(=O)[C@H](CCC(=O)O)NC(=O)[C@H](CCCNC(=N)N)NC(=O)[C@H](C)NC(=O)[C@H](C)NC(=O)[C@H](CCC(N)=O)NC(=O)[C@H](CCCCNC(=O)[C@@H](N)CCCCNC(=O)[C@@H](N)CCCCNC(=O)CC[C@H](NC(=O)CCCCCCCCCCCCCCCCC(=O)O)C(=O)O)NC(=O)[C@H](CCC(=O)O)NC(=O)[C@H](CC(C)C)NC(=O)[C@H](Cc1ccc(O)cc1)NC(=O)[C@@H](NC(=O)[C@H](CO)NC(=O)[C@H](Cc1ccc(O)cc1)NC(=O)[C@H](CC(=O)O)NC(=O)[C@H](CO)NC(=O)[C@@H](NC(=O)[C@H](Cc1ccccc1)NC(=O)[C@@H](NC(=O)CNC(=O)[C@H](CCC(=O)O)NC(=O)C(C)(C)NC(=O)[C@@H](N)Cc1ccc(O)cc1)[C@@H](C)O)[C@@H](C)O)[C@@H](C)CC)C(=O)N[C@@H](CCC(=O)O)C(=O)N[C@@H](Cc1c[nH]c2ccccc12)C(=O)N[C@@H](CC(C)C)C(=O)N[C@@H](CC(C)C)C(=O)N[C@@H](CCCNC(=N)N)C(=O)NCC(=O)NCC(=O)N1CCC[C@H]1C(=O)N[C@@H](CCC(=O)O)C(=O)N[C@@H](CO)C(=O)NCC(=O)N[C@@H](C)C(=O)N1CCC[C@H]1C(=O)N1CCC[C@H]1C(=O)N1CCC[C@H]1C(=O)N[C@@H](CO)C(=O)O` [Compound No. 13] (H-Y[Aib]EGTFTSDYSIYLEK([εLys-εLys-γGlu-C18 diacid])QAAREFIEWLLRGGPESGAPPPS-OH) showed a Cmax/Dose (oral tablet, 100 mg SNAC, 3 mg test substance, Beagle dogs, arithmetic mean) of 0.29 kg/L.

Turning to `CC[C@H](C)[C@H](NC(=O)[C@H](Cc1ccccc1)NC(=O)[C@H](CCC(=O)O)NC(=O)[C@H](CCC(N)=O)NC(=O)[C@H](C)NC(=O)[C@H](C)NC(=O)[C@H](CCC(N)=O)NC(=O)[C@H](CCCCNC(=O)[C@@H](N)CCCCNC(=O)[C@@H](N)CCCCNC(=O)CC[C@H](NC(=O)CCCCCCCCCCCCCCCCC(=O)O)C(=O)O)NC(=O)[C@H](CCC(=O)O)NC(=O)[C@H](CC(C)C)NC(=O)[C@H](CC(C)C)NC(=O)[C@@H](NC(=O)[C@H](CO)NC(=O)[C@H](Cc1ccc(O)cc1)NC(=O)[C@H](CC(=O)O)NC(=O)[C@H](CO)NC(=O)[C@@H](NC(=O)[C@H](Cc1ccccc1)NC(=O)[C@@H](NC(=O)CNC(=O)[C@H](CCC(=O)O)NC(=O)C(C)(C)NC(=O)[C@@H](N)Cc1ccc(O)cc1)[C@@H](C)O)[C@@H](C)O)[C@@H](C)CC)C(=O)N[C@@H](CC(N)=O)C(=O)N[C@@H](Cc1c[nH]c2ccccc12)C(=O)N[C@@H](CC(C)C)C(=O)N[C@@H](CC(C)C)C(=O)N[C@@H](C)C(=O)NCC(=O)NCC(=O)N1CCC[C@H]1C(=O)N[C@@H](CO)C(=O)N[C@@H](CO)C(=O)NCC(=O)N[C@@H](C)C(=O)N1CCC[C@H]1C(=O)N1CCC[C@H]1C(=O)N1CCC[C@H]1C(=O)N[C@@H](CO)C(=O)O` [Compound No. 24] (H-Y[Aib]EGTFTSDYSILLEK([εLys-εLys-γGlu-C18 diacid])QAAQEFINWLLAGGPSSGAPPPS-OH), the Cmax/Dose (dog, in vivo, po) is given as 0.29 kg/L.

Where the note is “dog, in vivo, po”, `CC[C@H](C)[C@H](NC(=O)[C@H](Cc1ccccc1)NC(=O)[C@H](CCC(=O)O)NC(=O)[C@H](CCC(=O)O)NC(=O)[C@H](C)NC(=O)[C@H](C)NC(=O)[C@H](CCC(N)=O)NC(=O)[C@H](CCCCNC(=O)[C@@H](N)CCCCNC(=O)[C@@H](N)CCCCNC(=O)CC[C@H](NC(=O)CCCCCCCCCCCCCCCCC(=O)O)C(=O)O)NC(=O)[C@H](CCC(=O)O)NC(=O)[C@H](CC(C)C)NC(=O)[C@H](CC(C)C)NC(=O)[C@@H](NC(=O)[C@H](CO)NC(=O)[C@H](Cc1ccc(O)cc1)NC(=O)[C@H](CC(=O)O)NC(=O)[C@H](CO)NC(=O)[C@@H](NC(=O)[C@H](Cc1ccccc1)NC(=O)[C@@H](NC(=O)CNC(=O)[C@H](CCC(=O)O)NC(=O)C(C)(C)NC(=O)[C@@H](N)Cc1ccc(O)cc1)[C@@H](C)O)[C@@H](C)O)[C@@H](C)CC)C(=O)N[C@@H](CC(N)=O)C(=O)N[C@@H](Cc1c[nH]c2ccccc12)C(=O)N[C@@H](CC(C)C)C(=O)N[C@@H](CC(C)C)C(=O)N[C@@H](C)C(=O)NCC(=O)NCC(=O)N1CCC[C@H]1C(=O)N[C@@H](CO)C(=O)N[C@@H](CO)C(=O)NCC(=O)N[C@@H](C)C(=O)N1CCC[C@H]1C(=O)N1CCC[C@H]1C(=O)N1CCC[C@H]1C(=O)N[C@@H](CO)C(=O)O` [Compound No. 25] (H-Y[Aib]EGTFTSDYSILLEK([εLys-εLys-γGlu-C18 diacid])QAAEEFINWLLAGGPSSGAPPPS-OH) yielded a Cmax/Dose of 0.30 kg/L.
